Experimental data: the NIST ThermoML archive (doi:10.1016/j.fluid.2019.02.010)
Numbers after ± are expanded uncertainties.

Experiment: xn = mol fraction of the nth substance listed
Settings: 101 kPa, Liquid, Vibrating tube method

Row | SMILES | mass density (293 K, x2 = 0.667) | mass density (298 K, x2 = 0.667) | mass density (303 K, x2 = 0.667) | mass density (308 K, x2 = 0.667) | mass density (313 K, x2 = 0.667) | mass density (318 K, x2 = 0.667) | mass density (323 K, x2 = 0.667) | mass density (328 K, x2 = 0.667) | further results
1 | CCN(CC)CC(=O)Nc1c(C)cccc1C [2-(diethylamino)-N-(2,6-dimethylphenyl)acetamide] + CCCCCCCCCC(=O)O | 960.9 ± 0.6 kg/m3 | 956.8 ± 0.6 kg/m3 | 952.8 ± 0.6 kg/m3 | 948.7 ± 0.6 kg/m3 | 944.7 ± 0.6 kg/m3 | 940.6 ± 0.6 kg/m3 | 936.4 ± 0.6 kg/m3 | 932.3 ± 0.6 kg/m3 | mass density (293 K, x2 = 0.75): 952.5 ± 0.6 kg/m3; mass density (293 K, x2 = 0.8): 944.9 ± 0.6 kg/m3; mass density (298 K, x2 = 0.75): 948.4 ± 0.6 kg/m3; mass density (298 K, x2 = 0.8): 940.9 ± 0.6 kg/m3; mass density (303 K, x2 = 0.75): 944.3 ± 0.6 kg/m3; mass density (303 K, x2 = 0.8): 936.9 ± 0.6 kg/m3; mass density (308 K, x2 = 0.75): 940.2 ± 0.6 kg/m3; mass density (308 K, x2 = 0.8): 932.9 ± 0.6 kg/m3; mass density (313 K, x2 = 0.75): 936.1 ± 0.6 kg/m3; mass density (313 K, x2 = 0.8): 928.9 ± 0.6 kg/m3; mass density (318 K, x2 = 0.75): 931.9 ± 0.6 kg/m3; mass density (318 K, x2 = 0.8): 924.7 ± 0.6 kg/m3; mass density (323 K, x2 = 0.75): 927.7 ± 0.6 kg/m3; mass density (323 K, x2 = 0.8): 920.6 ± 0.6 kg/m3; mass density (328 K, x2 = 0.75): 923.5 ± 0.6 kg/m3; mass density (328 K, x2 = 0.8): 916.4 ± 0.6 kg/m3
2 | CCN(CC)CC(=O)Nc1c(C)cccc1C [2-(diethylamino)-N-(2,6-dimethylphenyl)acetamide] + CCCCCCCCCCCC(=O)O | 949.6 ± 0.6 kg/m3 | 945.6 ± 0.6 kg/m3 | 941.6 ± 0.6 kg/m3 | 937.6 ± 0.6 kg/m3 | 933.6 ± 0.6 kg/m3 | 929.6 ± 0.5 kg/m3 | 925.55 ± 0.54 kg/m3 | 921.5 ± 0.5 kg/m3 | 
3 | CCN(CC)CC(=O)Nc1c(C)cccc1C [2-(diethylamino)-N-(2,6-dimethylphenyl)acetamide] + Cc1ccc(C(C)C)c(O)c1 | 989.1 ± 0.2 kg/m3 | 985.4 ± 0.2 kg/m3 | 981.6 ± 0.2 kg/m3 | 977.9 ± 0.2 kg/m3 | 974.2 ± 0.2 kg/m3 | 970.4 ± 0.2 kg/m3 | 966.6 ± 0.2 kg/m3 | 962.9 ± 0.2 kg/m3 | 
4 | Cc1ccc(C(C)C)c(O)c1 [3-methyl-6-isopropylphenol] + CCCCCCCCCC(=O)O |  |  |  |  |  |  |  |  | mass density (293 K, x2 = 0.5): 931.8 ± 0.5 kg/m3; mass density (298 K, x2 = 0.5): 928 ± 0.5 kg/m3; mass density (303 K, x2 = 0.5): 924.2 ± 0.5 kg/m3; mass density (308 K, x2 = 0.5): 920.3 ± 0.5 kg/m3; mass density (313 K, x2 = 0.5): 916.5 ± 0.5 kg/m3; mass density (318 K, x2 = 0.5): 912.6 ± 0.5 kg/m3; mass density (323 K, x2 = 0.5): 908.7 ± 0.4 kg/m3; mass density (328 K, x2 = 0.5): 904.9 ± 0.4 kg/m3
5 | CCCCCCCCCC(=O)O [decanoic acid] + CC(C)[C@@H]1CC[C@@H](C)C[C@H]1O |  |  |  |  |  |  |  |  | mass density (293 K, x1 = 0.5): 901.1 ± 0.4 kg/m3; mass density (298 K, x1 = 0.5): 897.6 ± 0.4 kg/m3; mass density (303 K, x1 = 0.5): 894 ± 0.4 kg/m3; mass density (308 K, x1 = 0.5): 890.4 ± 0.4 kg/m3; mass density (313 K, x1 = 0.5): 886.7 ± 0.4 kg/m3; mass density (318 K, x1 = 0.5): 883.1 ± 0.4 kg/m3; mass density (323 K, x1 = 0.5): 879.4 ± 0.4 kg/m3; mass density (328 K, x1 = 0.5): 875.7 ± 0.4 kg/m3
6 | CCCCCCCC[N+](CCCCCCCC)(CCCCCCCC)CCCCCCCC.[Br-] [tetraoctylammonium bromide] + CCCCCCCCCC(=O)O | 932.9 ± 0.8 kg/m3 | 929.6 ± 0.8 kg/m3 | 926.3 ± 0.8 kg/m3 | 923 ± 0.8 kg/m3 | 919.7 ± 0.8 kg/m3 | 916.5 ± 0.7 kg/m3 | 913.2 ± 0.7 kg/m3 | 910 ± 0.7 kg/m3 | 
